Test results as given in patent US4741899A, “Process for arresting the proliferation of organisms that convert axillary secretions to malodorous materials” (Bristol-Myers Company, priority 1983, dated 1988).
Structures can show the parent of a compound that is named as a salt.

Experiments:
[1] = test system: Staph (Axilla); assay: In vitro minimum inhibitory (bactericidal) concentration, Staph (Axilla); assay type: cell-based, staphylococci; conditions: 24 hrs. at 35° C., subculture further 24 hrs.; liquid culture medium
Method: (§1) To test the activity of the compounds employed in the present invention in arresting the proliferation of axillary organisms (e.g. corynebacteria and staphylococci) the following in vitro study was carried out:
(§2) Aqueous solutions (or suspensions) were prepared for each test substance. Serial two-fold dilutions of the above were then made in liquid culture medium. Each tube (10 ml of liquid) in the dilution series was inoculated with 0.2 ml of a 1:500 dilution of 24 hr. culture of bacteria. After 24 hrs. at 35° C., tubes showing turbidity (growth) were noted. All non-turbid dilutions were subcultured to liquid growth medium and incubated an additional 24 hrs. at 35° C. The lowest concentration of substance which yielded no growth upon subculture was noted as the minimum inhibitory (bactericidal) concentration (=MIC).
(§3) The numbers appearing in columns 2 and 3 give the minimum inhibitory concentration in percent (MIC %) for the materials tested i.e. the minimum concentration in percent of the agent tested which will inhibit the proliferation of the test organisms. The entries in the last column are judgments with respect to the activity of the agent tested.

[2] = test system: Diphth (Axilla); assay: In vitro minimum inhibitory (bactericidal) concentration, Diphth (Axilla); assay type: cell-based, aerobic diphtheroids (corynebacteria); conditions: 24 hrs. at 35° C., subculture further 24 hrs.; liquid culture medium
Method: as §1, §2, §3

[3] = test system: axillary organisms (e.g. corynebacteria and staphylococci); assay: In vitro Studies - Summary, judgment of activity against axillary organisms; assay type: cell-based; conditions: Staph and Diphth (Axilla)
Method: as §1, §2, §3

| SMILES | MIC (%) - cidal, Staph (Axilla) [1] [%] | MIC (%) - cidal, Diphth (Axilla) [2] [%] | Comments (judgment with respect to the activity of the agent tested) [3] |
| --- | --- | --- | --- |
| c1ccc2c(CC3=NCCN3)cccc2c1 [Naphazoline HCl] | 0.31 | 0.31 |  |
| CCCCNc1ccc(C(=O)OCCN(C)C)cc1 [Tetracaine HCl] | 0.08 | 0.08 |  |
| COc1ccc(CN(CCN(C)C)c2ccccn2)cc1 [Pyrilamine maleate] | 0.63 | 0.63 |  |
| CN(C)CCN(Cc1ccccc1)c1ccccn1 [Tripelennamine HCl] | 0.63 | 0.31 |  |
| CN1CCC2=C(C1)C(c1ccccc1)c1ccccc12 (stereo not drawn) [Phenindamine tartrate] | 0.04 | 0.08 | Good Activity |
| Cc1cc(C(C)(C)C)cc(C)c1CC1=NCCN1 [Xylometazoline HCl] | 0.08 | 0.04 |  |
| CC(CNC1CCCCC1)OC(=O)c1ccccc1 (stereo not drawn) [Hexylcaine HCl] | 0.16 | 0.16 |  |
